Drawing on ChEMBL document CHEMBL1201862, “PubChem BioAssay data set” (2004), this text covers EC50, IC50 and AC50 for 39 compounds.

Test [1] concerns the target Luciferin 4-monooxygenase (Photinus pyralis, UniProt P08659). In words: firefly luciferase enzyme inhibitors, dose response, biochemical, luminescence (AID 1891).
The nature of test [2]: Luminescence Cell-Based Dose Confirmation HTS to Identify Inhibitors of Platelet Dense Granule Release. [Related pubchem assays: 1663 (Primary HTS), 1678 (Summary of Project)]. Type of test: functional.
Test [3] concerns the target T1, Corticotropin-releasing factor receptor 2/Corticotropin-releasing factor-binding protein (Homo sapiens, UniProt P24387+Q13324).
T1 sequence (Q13324 whole entry): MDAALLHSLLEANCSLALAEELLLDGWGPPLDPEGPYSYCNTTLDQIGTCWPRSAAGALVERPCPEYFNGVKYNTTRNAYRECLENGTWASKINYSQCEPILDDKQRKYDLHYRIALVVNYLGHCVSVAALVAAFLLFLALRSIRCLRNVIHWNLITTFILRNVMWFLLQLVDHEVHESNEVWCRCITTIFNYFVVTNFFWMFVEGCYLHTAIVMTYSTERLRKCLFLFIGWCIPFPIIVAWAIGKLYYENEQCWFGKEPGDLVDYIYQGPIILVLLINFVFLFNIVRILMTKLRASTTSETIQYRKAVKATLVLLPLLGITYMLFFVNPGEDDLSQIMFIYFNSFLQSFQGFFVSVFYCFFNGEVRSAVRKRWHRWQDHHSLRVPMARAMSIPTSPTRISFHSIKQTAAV
T1 sequence (P24387 whole entry): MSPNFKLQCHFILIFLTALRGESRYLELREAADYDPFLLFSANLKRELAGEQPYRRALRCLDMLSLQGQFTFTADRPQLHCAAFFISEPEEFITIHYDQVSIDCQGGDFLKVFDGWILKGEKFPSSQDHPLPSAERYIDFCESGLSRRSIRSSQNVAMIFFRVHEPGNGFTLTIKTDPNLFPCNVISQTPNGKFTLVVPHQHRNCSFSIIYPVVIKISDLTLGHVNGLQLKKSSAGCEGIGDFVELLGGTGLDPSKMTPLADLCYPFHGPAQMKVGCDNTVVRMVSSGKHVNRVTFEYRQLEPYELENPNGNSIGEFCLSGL
In words: Dose Response confirmation of uHTS hits for small molecule antagonists of the CRF-binding protein and CRF-R2 receptor complex. Type of test: functional. Particulars: read-out: IC50_Mean.

The target in test [4] is T1, Corticotropin-releasing factor receptor 2/Corticotropin-releasing factor-binding protein. In words: activators of CRF receptor 2 with binding protein – uHTS hits, confirmation (AID 602473). The settings on record: read-out: EC50_Mean. The format is functional.
Test [5] in a line: inhibitors of intracellular T. cruzi replication, confirmation, NIH3T3 host cells, beta-gal luminescence (AID 2044).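 Further: intracellular parasites grown in NIH/3T3 mouse fibroblasts as host cells; luminescent beta-galactosidase reporter signal from transgenic T. cruzi replicating inside host cells; inhibitors lower the luminescence signal.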 The format is functional, cell-based.
A short description of test [6]: cytotoxicity toward NIH3T3 fibroblasts, dose response, counter-screen, cell-based, ATP luminescence, mouse fibroblasts (AID 2010).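 Further: cells exposed to compound for about 90 hours before reading.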 The format is functional.
Test [7] has as its system INS1. Put plainly: beta cell apoptosis inhibitors, cytokine rescue, dose response, luminescence, retest (AID 449756).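 Further: cell death triggered by IL-1 beta plus TNF-alpha plus IFN-gamma mixture; protective hits raise ATP signal compared with cytokine alone wells.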 The format is functional, cell-based. Particulars: Rattus norvegicus.
In test [8] the test system is H9c2. Put plainly: cells. Type of test: functional, cell-based. Particulars: Rattus norvegicus, H9c2, Myocardium.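 Further: confirmatory concentration-response retest of ultra-high-throughput screening hits for modulation of myocardial damage; cell death induced by hydrogen peroxide oxidative stress; compound pretreatment for 60 min then peroxide exposure for 2 h; potency is for protecting the cells against peroxide damage rather than for killing them.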
A short description of test [9]: inhibitors of firefly luciferase expression or activity, dose response, H4 neuroglioma cells, luminescence (AID 1990). Type of test: functional, cell-based.
Test [10] concerns Streptococcus sp. 'group A'. In words: growth inhibition of control SK(-) GAS strain, dose response, counter-screen for streptokinase expression inhibitor project, luminescence, kanamycin, BacTiterGlo, confirmation (AID 1900). Type of test: functional, organism-based.
A short description of test [11]: Luminescence Cell-Based Dose Response HTS to Identify Inhibitors of 5'UTR Stem-Loop Driven Prion Protein mRNA Translation in H4 Neuroglioblastoma Cells. [Related pubchem assays: 1827 (Project Summary), 1813 (Primary HTS)]. Type of test: functional.
Test [12] is described as follows: inhibitors of SNCA 5'UTR-driven reporter translation, confirmation, H4 neuroglioma cells, luminescence (AID 1988). The format is functional, cell-based.
Test [13] concerns the target T2, Streptokinase A (Streptococcus pyogenes serotype M1, UniProt P10520).
T2 sequence (P10520 whole entry): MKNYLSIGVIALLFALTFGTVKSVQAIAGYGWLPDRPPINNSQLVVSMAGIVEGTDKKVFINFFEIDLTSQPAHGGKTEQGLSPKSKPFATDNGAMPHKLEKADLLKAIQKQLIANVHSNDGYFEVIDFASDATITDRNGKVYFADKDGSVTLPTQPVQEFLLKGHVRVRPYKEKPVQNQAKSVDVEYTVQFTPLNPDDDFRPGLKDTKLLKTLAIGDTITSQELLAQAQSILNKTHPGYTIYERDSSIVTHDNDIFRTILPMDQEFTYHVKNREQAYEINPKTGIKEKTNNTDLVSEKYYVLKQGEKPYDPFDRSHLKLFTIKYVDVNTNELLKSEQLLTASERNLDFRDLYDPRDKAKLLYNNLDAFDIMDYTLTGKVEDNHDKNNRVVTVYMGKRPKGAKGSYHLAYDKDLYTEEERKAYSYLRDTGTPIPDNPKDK
Put plainly: S. pyogenes streptokinase expression inhibitors, potency, dose response, plasminogen activation absorbance, OD405 (AID 1914).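 Further: secreted streptokinase activity via plasminogen activation per viability signal from cell pellet.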 The format is functional, Streptococcus pyogenes M1 GAS.

The test system of test [14] is Streptococcus. In words: Group A Streptococcus viability loss, dose response, counter-screen for streptokinase expression inhibitor project, luminescence, BacTiterGlo (AID 1915).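 Further: potency for reduction of bacterial viability or growth.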 Type of test: functional, organism-based.
Test [15] concerns the target Cytochrome P450 2C19 (Homo sapiens, UniProt P33261). In words: Cytochrome panel assay with activity outcomes. Panel member name: p450-cyp2c19 Compounds with AC50 equal or less than 10 uM are considered active. The format is functional. Particulars: read-out: AC50.
The target of test [16] is Cytochrome P450 2D6 (Homo sapiens, UniProt P10635).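 Further: CYP2D6 member of a cytochrome P450 panel assay.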
Chain of Cytochrome P450 2D6 (P10635 whole entry): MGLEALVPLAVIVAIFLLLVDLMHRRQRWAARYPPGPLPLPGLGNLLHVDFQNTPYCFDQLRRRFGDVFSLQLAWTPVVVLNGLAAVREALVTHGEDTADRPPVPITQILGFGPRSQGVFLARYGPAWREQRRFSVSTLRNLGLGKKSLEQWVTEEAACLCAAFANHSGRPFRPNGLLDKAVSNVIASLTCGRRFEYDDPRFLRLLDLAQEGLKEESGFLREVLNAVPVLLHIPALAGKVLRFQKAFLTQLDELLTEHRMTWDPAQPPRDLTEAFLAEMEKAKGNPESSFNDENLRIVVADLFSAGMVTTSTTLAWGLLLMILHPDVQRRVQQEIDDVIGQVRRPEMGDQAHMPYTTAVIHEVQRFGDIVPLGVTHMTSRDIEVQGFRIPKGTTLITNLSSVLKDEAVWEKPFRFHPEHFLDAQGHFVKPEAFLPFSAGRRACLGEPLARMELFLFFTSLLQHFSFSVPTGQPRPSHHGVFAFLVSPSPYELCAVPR

Molecules are shown by their SMILES. The source made the active and inactive calls. Where only a bound is given, the exact number is not on record here.

Chain of Luciferin 4-monooxygenase (P08659 whole entry): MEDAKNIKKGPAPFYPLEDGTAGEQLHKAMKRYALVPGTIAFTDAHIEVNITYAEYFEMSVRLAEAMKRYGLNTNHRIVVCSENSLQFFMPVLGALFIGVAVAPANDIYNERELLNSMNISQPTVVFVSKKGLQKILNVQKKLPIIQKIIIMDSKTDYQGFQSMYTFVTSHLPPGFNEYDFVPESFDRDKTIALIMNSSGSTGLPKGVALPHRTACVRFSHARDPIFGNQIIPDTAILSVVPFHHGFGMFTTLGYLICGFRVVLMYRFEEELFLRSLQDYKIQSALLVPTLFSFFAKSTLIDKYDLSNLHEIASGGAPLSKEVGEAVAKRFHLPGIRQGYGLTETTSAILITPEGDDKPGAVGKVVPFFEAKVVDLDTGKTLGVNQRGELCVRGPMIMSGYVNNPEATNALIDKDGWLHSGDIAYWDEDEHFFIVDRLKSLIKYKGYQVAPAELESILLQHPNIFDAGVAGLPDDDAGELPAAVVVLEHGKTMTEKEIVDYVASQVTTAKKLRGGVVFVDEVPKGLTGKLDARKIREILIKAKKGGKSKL
Chain of Cytochrome P450 2C19 (P33261 whole entry): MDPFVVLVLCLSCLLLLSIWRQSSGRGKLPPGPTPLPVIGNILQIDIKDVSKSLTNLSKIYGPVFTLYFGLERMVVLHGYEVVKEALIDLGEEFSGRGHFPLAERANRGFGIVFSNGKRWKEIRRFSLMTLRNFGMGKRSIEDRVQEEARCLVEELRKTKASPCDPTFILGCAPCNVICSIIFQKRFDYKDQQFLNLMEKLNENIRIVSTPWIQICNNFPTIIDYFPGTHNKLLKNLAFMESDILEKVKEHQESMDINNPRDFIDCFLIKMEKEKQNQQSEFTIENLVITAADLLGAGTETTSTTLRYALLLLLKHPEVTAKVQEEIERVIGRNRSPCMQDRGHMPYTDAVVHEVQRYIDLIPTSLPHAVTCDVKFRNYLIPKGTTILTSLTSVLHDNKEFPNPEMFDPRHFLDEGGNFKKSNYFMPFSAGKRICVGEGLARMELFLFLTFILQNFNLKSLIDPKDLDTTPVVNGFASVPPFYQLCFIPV

For the compound `Cc1nc2sccn2c(=O)c1S(=O)(=O)NC(C)c1ccccc1` (centres undefined), the EC50 in [1] and in [2] was > 112 µM (not active) in each case. Turning to `CC(C)N1CC(C(=O)Nc2ccc(Br)c(Cl)c2)CC1=O` (centres undefined), the IC50 in test [3] is > 47.1 µM (inactive). Also, the EC50 in test [4] is > 53 µM (inactive). As to `CCC[N+]1(CC#CCC(c2ccccc2)c2ccccc2)CCCCC1`, the EC50 in test [5] is 0.767 µM (active); in test [6] it was > 60 µM (not active). For the same compound, in test [7], the AC50 was 1.67 µM (active).

As for `Cc1ccccc1N(C(=O)c1snc(C(N)=O)c1N)C(C(=O)NCc1ccccc1)c1ccc(O)cc1` (centres undefined), the IC50 in test [8] is > 79 µM (inactive). `COc1ccc(CCNC(=O)c2cc3c(=O)n4cccc(C)c4nc3n(Cc3ccco3)c2=N)cc1OC`: in test [7], the AC50 is 8.24 µM (active).

`Cn1c(=O)oc2cc(S(=O)(=O)NC3CCN(Cc4ccccc4)CC3)ccc21`: the EC50 in [1] and in [2] was > 112 µM (not active) in each case.

For the compound `CCC1CCCCN1CCCNC(=O)c1cn(C)c2ccc(S(=O)(=O)N(C)C3CCCCC3)cc2c1=O` (centres undefined), the IC50 in test [3] was > 47.1 µM (inactive). In addition, in test [4], the EC50 was > 53 µM (inactive). Turning to `COc1ccc(-c2cc(C(=O)Nc3ccccc3N3CCOCC3)c3ccccc3n2)cc1OC`, the IC50 in test [8] was > 79 µM (inactive). With `CN(C)c1nc(NCc2ccccc2)nc(SCC(=O)Nc2ccccc2Cl)n1`, in [3], the IC50 was > 47.1 µM (inactive). Besides, in test [4], the EC50 was > 53 µM (inactive).

Consider `Cn1c(=O)[nH]c(=O)c2c1nc(N1CCC(Cc3ccccc3)CC1)n2Cc1ccccc1`, for which the EC50 was 19.4 µM (active) in test [9]; 4.39 µM (active) in test [10]; > 120 µM (not active) in test [11]; 56.4 µM (active) in [12]; 18 µM (active) in test [13]; > 150 µM (not active) in test [14].

Turning to `COCCN1CCN(C(=O)c2cc(COc3cc(C)ccc3C)on2)CC1`, the IC50 in [3] was > 47.1 µM (inactive). Besides, in test [4], the EC50 is > 53 µM (inactive). As for `NC(=O)COC(=O)c1cccc(S(=O)(=O)N2CCCCC2)c1`, the IC50 in [3] was > 47.1 µM (inactive). Besides, the EC50 in test [4] was > 53 µM (inactive). In the case of `O=C(NCc1ccco1)C(c1ccccc1)N(C(=O)Cc1cccs1)c1ccccc1F` (centres undefined), the IC50 in test [8] is > 79 µM (inactive). `COc1ccc(-c2[nH]ncc2/C=N/NC(=O)c2ccc(Br)cc2)c(OC)c1`: the EC50 was > 112 µM (not active) in test [1] and 16.1 µM (active) in test [2]. On to `N#Cc1ccc(/C=N/NC(=O)CCc2ccc(S(=O)(=O)N3CCOCC3)cc2)cc1`, for which the EC50 in test [1] and in test [2] was > 112 µM (not active) throughout. With `O=C(Nc1ncnc2c1C(c1ccccc1)c1c(ccc3ccccc13)O2)c1ccccc1` (centres undefined), in test [7], the AC50 is 20.6 µM (active). Turning to `Fc1ccc(-c2cc(-c3nnc4n3CCCCC4)c3ccccc3n2)cc1`, the AC50 in [7] was 11.2 µM (active).

`C=CCn1c(SCC(=O)Nc2sc3c(c2C#N)CCC3)nnc1C1COc2ccccc2O1` (centres undefined): the results for the EC50 in test [1] and in [2] were 39.7 µM (active) and > 112 µM (not active), respectively. Consider `N#Cc1c(-c2ccco2)cc(-c2ccccn2)nc1N`, for which the IC50 in [8] was 14.3 µM (active). On to `COc1ccccc1C(=O)NC(=O)COC(=O)Cn1[nH]c(=O)c2ccccc2c1=O`, for which the IC50 in [8] was > 79 µM (inactive). For the compound `Cc1cccc(C(C)C)c1NC(=O)C(C)OC(=O)Cc1nnc(O)c2ccccc12` (centres undefined), the IC50 in test [8] was 21.1 µM (active). Consider `O=C(O)C1C2C=CC(C2)C1C(=O)NCc1ccccn1` (centres undefined), for which the EC50 in test [1] and in [2] was > 112 µM (not active) throughout. Take `O=C(CCNC(=O)C1CCN(S(=O)(=O)c2ccccc2)CC1)NCc1ccc(Cl)c(Cl)c1`: the EC50 in [1] and in test [2] was > 112 µM (not active) throughout. With `Cn1c(=O)n(CCc2ccccc2)c(=O)c2c1nc1n2CCN1Cc1ccco1`, in test [8], the IC50 was 10.5 µM (active).

For `Cc1cc(C)n(Cc2cccc(F)c2)c(=O)c1C#N`, the EC50 in [1] and in [2] was > 112 µM (not active) throughout. On to `O=C1C2C3C=CC(C3)C2C(=O)N1/N=C/c1cn(Cc2ccccc2)c2ccccc12` (centres undefined), for which the results for the EC50 in test [9], in [11] and in test [12] were 11 µM (active), 12.5 µM (active) and 2.2 µM (active), respectively. Further, the AC50 in test [15] was 8.91 µM (inconclusive); in test [16], 39.8 µM (inconclusive).

Turning to `COc1ccc(OC)c(NC(=O)c2ccccc2NS(=O)(=O)c2cccc3cccnc23)c1`, the IC50 in test [3] was < 0.368 µM (active). The EC50 in test [4] was > 53 µM (inactive). With `O=C(Nc1ccc(C(=O)N2CCCC2)cc1)c1ccccc1F`, in test [3], the IC50 was > 47.1 µM (inactive). Further, the EC50 in test [4] is > 53 µM (inactive). Turning to `CCOc1cccc(-c2nn3c(-c4ccco4)nnc3s2)c1`, the IC50 in [8] is > 79 µM (inactive). Turning to `Cc1ccc(/N=C2\C=C(O)C(=O)c3ccccc32)c(C)c1`, in test [7], the AC50 was 2.06 µM (active). Regarding `Cc1ccc(Cn2c(SCC(=O)NCC3CCCO3)nc3ccsc3c2=O)cc1` (centres undefined), in test [3], the IC50 was > 47.1 µM (inactive). The EC50 in [4] was > 53 µM (inactive). Regarding `COc1cccc2oc3cc(C#Cc4ccccn4)ccc3c(=O)c12`, the EC50 in test [1] is 23.1 µM (active); in [2], > 112 µM (not active). For `Cc1ccccc1CN(C)CC(=O)Nc1cccc(S(=O)(=O)N(C)c2ccccc2)c1`, the EC50 in test [9], in [11] and in test [12] was > 120 µM (not active) throughout. In the case of `CCC(C)(C)n1nnnc1C(c1cccc(C#N)c1)N1CCN(c2cccc(C)c2C)CC1` (centres undefined), the IC50 in test [3] was > 47.1 µM (inactive). In addition, the EC50 in test [4] is > 53 µM (inactive). As for `CC(C)CC(C(=O)NC1CCCCC1)N(Cc1cccs1)C(=O)c1snc(C(N)=O)c1N` (centres undefined), the IC50 in test [8] is > 79 µM (inactive). Consider `COc1ccc(-c2nn(-c3ccccc3)cc2/C=C(\C#N)S(=O)(=O)c2ccccc2)cc1OC`, for which, in [3], the IC50 is > 47.1 µM (inactive). For the same compound, in test [4], the EC50 was > 53 µM (inactive). Turning to `Cc1ccsc1/C=N\NC(=O)CCc1c(C)n[nH]c1C`, the IC50 in test [3] is > 47.1 µM (inactive). The EC50 in test [4] is > 53 µM (inactive).

Take `CCN1CCN(c2cc3nc(C)n(Cc4ccccc4)c(=O)c3cc2NC(=O)c2ccccc2F)CC1`: the EC50 in test [9] is 8.04 µM (active); in test [11], 8.79 µM (active); in test [12], 8.28 µM (active). Consider `CCN(c1ccc(NC(=O)COC(=O)c2ccc([N+](=O)[O-])o2)cc1)C(C)C`, for which, in test [8], the IC50 is > 79 µM (inactive).
